Laboratory results as given in patent EP0626016B1, “[…] […]” (BRITISH TECHNOLOGY GROUP LIMITED, priority 1992, dated 1993).
Several values for one entry are separate records, joined by “and”; a condition that tells them apart may be missing. Equal entries are not always repeated. Where two headings read alike, the source gives them in different places.

Molecular target: T1, HRP Type VIA (Armoracia rusticana, UniProt P00433)
T1 sequence (P00433 31-338): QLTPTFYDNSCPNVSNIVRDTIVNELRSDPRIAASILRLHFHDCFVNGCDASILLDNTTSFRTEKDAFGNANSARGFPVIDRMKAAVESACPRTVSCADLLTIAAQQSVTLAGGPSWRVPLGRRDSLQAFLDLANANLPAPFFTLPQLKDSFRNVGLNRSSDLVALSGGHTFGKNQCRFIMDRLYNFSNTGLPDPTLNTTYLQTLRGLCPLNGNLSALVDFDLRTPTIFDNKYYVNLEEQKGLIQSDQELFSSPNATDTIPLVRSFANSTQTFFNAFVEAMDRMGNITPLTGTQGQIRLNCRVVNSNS

[1] = 0.01 mg/ml, 10µl test compound, control value in brackets not reported
[2] = 0.1 mg/ml, 10µl test compound, control value in brackets not reported
[3] = 1 mg/ml, 10µl test compound, control value in brackets not reported

(a) Decrease in background (without HRP with test cpd.) (0.01 mg/ml, 10µl test compound) | (b) Increase in signal (with HRP, with test cpd.) (0.01 mg/ml, 10µl test compound) | (d) Signal: Background: ratio (control = with no enhancer) [1] | (a) Decrease in background (without HRP with test cpd.) (0.1 mg/ml, 10µl test compound) | (b) Increase in signal (with HRP, with test cpd.) (0.1 mg/ml, 10µl test compound) | (d) Signal: Background: ratio (control = with no enhancer) [2] | (a) Decrease in background (without HRP with test cpd.) (1 mg/ml, 10µl test compound) | (b) Increase in signal (with HRP, with test cpd.) (1 mg/ml, 10µl test compound) | Structure (SMILES) | (c) Increase in signal: background ratio (0.01 mg/ml, 10µl test compound) | (c) Increase in signal: background ratio (0.1 mg/ml, 10µl test compound) | (c) Increase in signal: background ratio (1 mg/ml, 10µl test compound) | (d) Signal: Background: ratio (control = with no enhancer) [3] | (a) Decrease in background (without HRP with test cpd.) | (b) Increase in signal (with HRP, with test cpd.) | (c) Increase in signal: background ratio | (d) Signal: Background: ratio (control = with no enhancer)
Y | Y | 4.1 (1.8) | Y | Y | 67.7 (2.8) | Y | Y | OB(O)c1ccc(Nc2ccc(Cl)cc2)cc1 [Compound 1033, 4-(4'-chloroanilino)phenylboronic acid] | Y (Column (c) shows whether there was an increase in the signal:background ratio by over 25% of the control value (Y = yes) | Y (Column (c) shows whether there was an increase in the signal:background ratio by over 25% of the control value (Y = yes) | Y (Column (c) shows whether there was an increase in the signal:background ratio by over 25% of the control value (Y = yes) | 173.9 (4.5) |  |  |  | 
Y | N | 3.6 (1.9) | Y | Y | 41.2 (2.9) | Y | N | Cc1ccc(B(O)O)cc1 [Compound 1034, 4-methylphenylboronic acid] | Y (Column (c) shows whether there was an increase in the signal:background ratio by over 25% of the control value (Y = yes) | Y (Column (c) shows whether there was an increase in the signal:background ratio by over 25% of the control value (Y = yes) | N (N = no) |  |  |  |  | 
Y | N | 2.1 (2.0) | Y | N |  | Y | N | OB(O)c1ccc(B(O)O)cc1 [Compound 1035, 1,4-phenyldiboronic acid] | N (N = no) | N (N = no) | N (N = no) |  |  |  |  | 
Y | Y | 35.5 (1.9) | Y | Y | 503.3 (2.9) | Y | N | OB(O)c1ccc(-c2ccc(B(O)O)cc2)cc1 [Compound 1037, 4,4'-bis(phenylboronic acid)] | Y (Column (c) shows whether there was an increase in the signal:background ratio by over 25% of the control value (Y = yes) | Y (Column (c) shows whether there was an increase in the signal:background ratio by over 25% of the control value (Y = yes) | N (N = no) |  |  |  |  | 
 |  |  |  |  |  |  |  | Clc1cc(Cl)c(OB(Oc2cc(Cl)c(Cl)cc2Cl)c2cc(Cl)c(Cl)cc2Cl)cc1Cl [Compound 1039, di-(3',4',6'-trichlorophenoxy)-3,4,6-trichlorophenylborane] |  |  |  |  | Y | N | N (key: column (a) shows whether the test compound lowered the light output from the luminol-hydrogen peroxide solution (Y = yes; N = no) | 3.4 (2.9)
 |  |  |  |  |  |  |  | Clc1cc(Cl)cc(OB(Oc2cc(Cl)cc(Cl)c2)c2cc(Cl)cc(Cl)c2)c1 [Compound 1040, di-(3',5'-dichlorophenoxy)-3,5-dichlorophenylborane] |  |  |  |  | Y | N |  | 4.7 (4.5) and 3.9 (2.9)
Y | Y | 6.3 (1.9) | Y | Y | 360.2 (2.8) | Y | Y | Clc1ccc(OB(Oc2ccc(Cl)cc2)c2ccc(Cl)cc2)cc1 [Compound 1041, 4-chlorophenyl-di-(4'-chlorophenoxy)borane] | Y (Column (c) shows whether there was an increase in the signal:background ratio by over 25% of the control value (Y = yes) | Y (Column (c) shows whether there was an increase in the signal:background ratio by over 25% of the control value (Y = yes) | Y (Column (c) shows whether there was an increase in the signal:background ratio by over 25% of the control value (Y = yes) | 2606.2(4.5) |  |  |  | 

Structure (SMILES) | (a) Decrease in background (without HRP with test cpd.) (0.01 mg/ml, 10µl test compound) | (b) Increase in signal (with HRP, with test cpd.) (0.01 mg/ml, 10µl test compound) | (d) Signal: Background: ratio (control = with no enhancer) [1] | (a) Decrease in background (without HRP with test cpd.) (0.1 mg/ml, 10µl test compound) | (b) Increase in signal (with HRP, with test cpd.) (0.1 mg/ml, 10µl test compound) | (d) Signal: Background: ratio (control = with no enhancer) [2] | (a) Decrease in background (without HRP with test cpd.) (1 mg/ml, 10µl test compound) | (b) Increase in signal (with HRP, with test cpd.) (1 mg/ml, 10µl test compound) | (c) Increase in signal: background ratio (0.01 mg/ml, 10µl test compound) | (c) Increase in signal: background ratio (0.1 mg/ml, 10µl test compound) | (c) Increase in signal: background ratio (1 mg/ml, 10µl test compound) | (d) Signal: Background: ratio (control = with no enhancer) [3] | (a) Decrease in background (without HRP with test cpd.) | (b) Increase in signal (with HRP, with test cpd.) | (c) Increase in signal: background ratio | (d) Signal: Background: ratio (control = with no enhancer)
CCCCOB(OCCCC)c1ccc(-c2ccc(Br)cc2)cc1 [Compound 1038, 4-(4'-bromophenyl)phenyl-di-n-butoxyborane] | Y Y | Y Y | 442.2 | Y Y | Y Y | 2118.5 | Y | Y | Y Y (Column (c) shows whether there was an increase in the signal:background ratio by over 25% of the control value (Y = yes) | Y Y (Column (c) shows whether there was an increase in the signal:background ratio by over 25% of the control value (Y = yes) | Y (Column (c) shows whether there was an increase in the signal:background ratio by over 25% of the control value (Y = yes) | 903.8 (4.5) |  |  |  | 
CCCCOB(OCCCC)c1ccc(Br)cc1 [Compound 1044, 4-bromophenyl-di-n-butoxyborane] | Y | Y | 38.5 (1.9) | Y | Y | 623.1 (2.7) | Y | N | Y (Column (c) shows whether there was an increase in the signal:background ratio by over 25% of the control value (Y = yes) | Y (Column (c) shows whether there was an increase in the signal:background ratio by over 25% of the control value (Y = yes) | Y (Column (c) shows whether there was an increase in the signal:background ratio by over 25% of the control value (Y = yes) | 147.1 (4.5) |  |  |  | 
